Consider 1 molecule from patent publication US20140187594A1, “DIPHENYL ETHER COMPOUNDS FOR THE TREATMENT OF LIVER, LUNG DISORDERS, DIABETIC COMPLICATIONS AND CARDIOVASCULAR DISEASES” (ORCHID CHEMICALS AND PHARMACEUTICALS LTD, priority 2010, published 2014).

Molecules are shown by their SMILES.

One experiment has as its system 3T3-L1 fibroblasts. As to the kind of experiment: Adipogenesis in 3T3-L1 mouse fibroblast (oil red O staining). To be noted: 1 μM or 10 μM, 7 days. The experiment is classed as cell-based. The procedure: 3T3-L1 fibroblasts were seeded at a concentration of 10,000 cells/well in 24 well tissue culture plates in a total volume of 1 mL Dulbecco's Modified Eagle Medium (DMEM media) containing 10% fetal bovine serum, penicillin and streptomycin. […] After every two days, the media contents were replaced with fresh media and the drug. This process was carried out for 7 days. After 7 days of treatment, the cells were fixed in 10% formalin for 1 hour at […], stained with oil red 0 solution for 10 minutes and washed 6 times with 1×PBS to remove the excess stain. The plates were dried and visualized under 40× objective using Nikon E200 microscope and the pictures were taken by Nikon DXM 1200C digital camera.

The subject of a further experiment is STZ induced diabetic rat. Briefly: Lenticular degeneration in STZ induced type I diabetic model. It counts as in vivo, Sprague Dawley rats. To be noted: 100 mg/kg for 2 months, FIG. 41. The procedure:
The animal model was developed by injecting STZ to Sprague Dawley rats and kept for 10 weeks to develop diabetic complications. Initially animals were in hyperglycemic and chronically, developed several feature of diabetes and diabetic complications, which simulates human diabetes and complications. These features were treated as mentioned below. Forty male Sprague Dawley rats aged 6-8 weeks, body weight range between 150-190 g was used for this study. The animals were divided into two groups. First group (n=10) was treated as a normal control injected with normal saline and the second group (n=30) was treated with STZ (50 mg/kg, i.v.), (Sigma. USA). Body weight was recorded every week and blood glucose every month using glucometer (Contour TS, Bayer Healthcare Ltd.). Every week eyes were examined for cataractous changes. After 10 weeks of diabetes induction animals were grouped based on blood glucose levels and the severity of cataract. The first group served as normal control (n=10). The diabetic animals with cataract were divided into two groups, second group served as disease control (n=9) and third group was treated with compound of formula (A) (n=10) at 100 mg/kg dose for 2 months. At the last day of experiment animals were kept for 12 hours fasting, next day blood was collected, plasma separated and used for biochemical analysis. […] Data Analysis: The values are expressed as Mean±SE. […]

The next experiment has as its system HC-HF diet fed Hamsters. As to the kind of experiment: HC-HF diet fed dyslipidemic hamsters. It counts as in vivo, Golden Syrian hamsters. To be noted: 28 days. The procedure:
Dyslipidemia in hamsters were developed by feeding supranutritional diet with fructose liquid (10%) which simulates features of dyslipidemia in human. These features were treated as mentioned below. Thirty male Golden Syrian hamsters aged 14-16 weeks, body weight ranges between 100-160 g were used for this study. Animals were divided into two groups. First group (n=7) was treated as a normal control and was fed with chow feed (Nutri Lab® Rodent, Tetragon Chemie Pvt. Ltd., Bangalore) and the second group (n=23) was fed with HC-HF diet (in-house made), the composition of which were Corn oil 11.50%, Coconut oil 11.50%, Cholesterol 0.50%, Sodium cholate 0.25% and Nutri Lab® feed 76.25% and animals were provided with 10% fructose in the drinking water. […] During this period, animal body weight was recorded daily. […]
The dyslipidemic model was developed in the protocol as mentioned in experimental 4. […] During this period, animal body weight was recorded daily. […]
(§1) The parameters like Glucose, ALT, AST, TC, TG (Clinical chemistry analyzer Erba XL 300), insulin (Linco®-CA, Product code: EZRMI-13K) and TNFα (GE Healthcare, Amersham, UK. Product code: RPN2718) were measured using commercially available kits. NEFA was measured in serum using commercially available NEFA C kit (Product code No: 279-75401, Wako pure chemical industries ltd., Japan).

The next experiment relates to DIO mice. Briefly: Insulin resistance (HOMA-IR) in diet induced obese mice. The experiment is classed as in vivo, C57BL/6 mice. Particulars: 30 mg/kg for 28 days, FIG. 22. The method, then:
The animal model with obesity with insulin resistance was developed by feeding 60 Kcal % high fat diet, which simulates several features of human obesity and insulin resistance. These features were treated as mentioned below. […] C57BL/6 male mice aged 6-8 weeks, and body weight ranges between 16-22 g were used. Animals were divided into two groups. First group (n=10) was treated as a normal control fed chow feed (Nutri Labe Rodent, Tetragon Chemie Pvt. Ltd., Bangalore) and the second group (n=25) fed 60 Kcal % high fat diet (HFD) (Research Diets, New Brunswick, N.J., Cat# D12492 with blue dye) for 120 days. At the end of induction period the animals were selected based on insulin resistance for further study. […] During this period, body weight and feed intake was recorded daily. […]
as §1

Regarding `COC(=O)[C@@H](N)Cc1ccc(Oc2ccc(CC3SC(=O)NC3=O)cc2)cc1` (stereo partly drawn) [Compound of formula (A), Methyl(2S)-2-amino-3-(4-{4-[(2,4-dioxo-1,3-thiazolidin-5-yl)methyl]phenoxy}phenyl)propanoate], in the experiment on 3T3-L1 fibroblasts, the “adipogenesis (intracellular lipids stained with oil red O)” value was “did not induce adipogenesis”. For the same molecule, the lenticular degeneration result in the experiment with STZ induced diabetic rat is on record as “significant improvement in lenticular degeneration”. Also, the NEFA result with HC-HF diet fed Hamsters (30 and 100 mg/kg p.o., FIG. 15) is listed as “significant reduction”. Moreover, the “plasma TG” value with HC-HF diet fed Hamsters ((A) 30 and 100 mg/kg, disodium salt of (C) 10 and 30 mg/kg p.o., FIGS. 14 & 29) is given as “significant reduction”. Moreover, the HOMA-IR result in the experiment with DIO mice was “improvement in HOMA-IR”.
